These results are taken from patent US12337010B2, “Compositions and methods of treatment using nicotinamide mononucleotide” (Washington University, priority 2017, dated 2025).

Broadly, the IC50 is the point on the concentration scale where inhibition reaches its midpoint. Low values mean higher potency, high ones lower potency.

Each structure is given as a SMILES string.

The target of this test is T1, Slc12a8 (Mus musculus, UniProt Q8VI23).
T1 construct: NIH3T3 cells were transfected with 5 μg of pCXN2 carrying the full-length Slc12a8 cDNA (Slc12a8-OE); expressed in transfected cells
T1 sequence (Q8VI23 1-705): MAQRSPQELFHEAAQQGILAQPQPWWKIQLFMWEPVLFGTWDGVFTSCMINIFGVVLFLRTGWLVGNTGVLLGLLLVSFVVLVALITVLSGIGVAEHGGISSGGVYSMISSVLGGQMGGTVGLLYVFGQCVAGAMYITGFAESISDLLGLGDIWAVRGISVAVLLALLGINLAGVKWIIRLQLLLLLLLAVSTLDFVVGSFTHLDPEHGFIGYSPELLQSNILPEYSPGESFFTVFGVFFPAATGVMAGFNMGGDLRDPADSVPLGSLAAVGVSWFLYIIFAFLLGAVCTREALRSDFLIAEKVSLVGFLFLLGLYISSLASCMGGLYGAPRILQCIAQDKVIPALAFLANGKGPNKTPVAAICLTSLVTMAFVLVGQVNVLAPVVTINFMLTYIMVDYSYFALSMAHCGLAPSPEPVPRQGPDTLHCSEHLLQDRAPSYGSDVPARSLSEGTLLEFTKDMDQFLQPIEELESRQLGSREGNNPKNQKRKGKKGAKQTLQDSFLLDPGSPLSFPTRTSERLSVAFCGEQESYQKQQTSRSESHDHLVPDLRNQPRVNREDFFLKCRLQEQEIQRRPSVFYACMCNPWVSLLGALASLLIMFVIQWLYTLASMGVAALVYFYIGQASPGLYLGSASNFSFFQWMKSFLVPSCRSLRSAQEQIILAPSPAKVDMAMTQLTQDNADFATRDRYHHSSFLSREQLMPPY
The experiment in a line: 3H-NMN uptake and displacement in Slc12a8-OE proteoliposomes. In kind it is biochemical. As to the method:
Proteoliposome experiments. Proteoliposome preparation was carried out as previously described (Bruzzone, S., et al., FASEB J., 15, 10-12, 2001). Briefly, 2×10^7 control or Slc12a8-OE NIH3T3 cells were resuspended in 1 ml of lysis buffer (10 mM Tris-HCl, pH 8.3, 150 mM NaCl, 0.3 M sucrose, protease inhibitor cocktail) and disrupted using a homogenizer. The lysate was centrifuged for 10 min at 3,000×g, and the supernatant was collected and centrifuged for 15 min at 100,000×g. The membrane proteins were solubilized with buffer A (10 mM Tris-HCl, pH 8.3, containing 150 mM NaCl and 0.5% n-octyl β-glucopyranoside). Separately, total lipids were extracted from hemoglobin-free erythrocyte membranes (ghosts) as described previously (Franco, L., et al., FASEB J., 12, 1507-1520, 1998). Total lipids from human erythrocyte membranes (3 mg) were dried and resuspended with 600 μl of solubilized membrane proteins (at approximately 0.7 mg/ml protein concentration). The resulting emulsions were sonicated in ice for 1 min and dialyzed against 5 liters of buffer A without n-octyl-β-glucopyranoside (dialysis buffer) for 24 h at 4° C. Proteoliposomes were recovered, centrifuged for 15 min at 100,000×g, resuspended in 900 μl dialysis buffer and passed 5 times through a 30-gauge needle.
To examine the Na+-dependency of Slc12a8, NaCl was replaced with 150 mM LiCl. All steps were carried out at 4° C. Proteoliposomes (30 μl in triplicate for each condition) were incubated for 2, 5 or 10 min at 25° C. in the presence of […] 3H-β-NMN (specific activity, 9.1 Ci/mmole) with or without label-free nucleotides (NMN, NR, NAD, AMP; NAM or NaMN). At the end of incubations, samples were filtered on a glass fiber paper. Filters were washed with 3 ml of dialysis buffer, dried, and counted for radioactivity.
Proteoliposomes were produced by combining the membrane fractions of Slc12a8-OE or control NIH3T3 cells with the phospholipid bilayers derived from deproteinized erythrocyte plasma membrane as described supra using 22 nM, ^3H-NMN at 25° C. in proteoliposomes produced from plasma membrane fractions of Slc12a8-OE and control NIH3T3 cells in transport buffer (n=3; analyzed by one-way ANOVA with Sidak's multiple comparisons test).
In order to determine substrate specificity of Slc12a8, these Slc12a8-OE proteoliposomes were used for displacement experiments with ^3H-NMN and various cold NAD+-related compounds. Uptake of ^3H-NMN (150 nM, 25° C.) was measured at 2 min in Slc12a8-OE proteoliposomes in the presence of 150 μM competing cold compounds (NMN, NR, NAD, AMP, NaMN, and nicotinamide) in transport buffer (n=3, analyzed by ANOVA with Dunnett's test). […] Data are shown as percentages of ^3H-NMN uptake (n=3; IC50 was calculated by non-linear regression analysis).
In these experiments, the sodium ion dependency of Slc12a8 for NMN transport was evaluated using the proteoliposome system.

As for `NC(=O)c1ccc[n+]([C@@H]2O[C@H](COP(=O)([O-])O)[C@@H](O)[C@H]2O)c1` [NMN, nicotinamide mononucleotide], where the note is “150 μM cold compound, 150 nM 3H-NMN, 25° C., 2 min”, the “displacement of 3H-NMN” value is reported as “complete displacement”. The compound further returned an IC50 (Slc12a8-OE proteoliposome system) of 22.8 ± 3.6 µM.
